Data published in PubChem BioAssay (NCI).
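Cultured in 96-well plates, cells were exposed to test compound for 48 hours across five concentrations. Here, GI50 denotes the concentration required for 50% inhibition of growth. TGI is the concentration that stops growth completely.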

Legend:
Test in all cases: NCI anticancer screen, dose series, 48 h
786-0 renal = tested on: 786-0 renal
A498 renal = tested on: A498 renal
A549 NSCLC = tested on: A549 NSCLC
ACHN renal = tested on: ACHN renal
BT-549 breast = tested on: BT-549 breast
CAKI-1 renal = tested on: CAKI-1 renal
CCRF-CEM leukemia = tested on: CCRF-CEM leukemia
COLO 205 colon = tested on: COLO 205 colon
DU-145 prostate = tested on: DU-145 prostate
HCC-2998 colon = tested on: HCC-2998 colon
HCT-116 colon = tested on: HCT-116 colon
HCT-15 colon = tested on: HCT-15 colon
HL-60(TB) leukemia = tested on: HL-60(TB) leukemia
HOP-62 NSCLC = tested on: HOP-62 NSCLC
HOP-92 NSCLC = tested on: HOP-92 NSCLC
HS 578T breast = tested on: HS 578T breast
HT29 colon = tested on: HT29 colon
IGROV1 ovarian = tested on: IGROV1 ovarian
K-562 leukemia = tested on: K-562 leukemia
KM12 colon = tested on: KM12 colon
LOX IMVI melanoma = tested on: LOX IMVI melanoma
M14 melanoma = tested on: M14 melanoma
MALME-3M melanoma = tested on: MALME-3M melanoma
MCF7 breast = tested on: MCF7 breast
MDA-MB-231 breast = tested on: MDA-MB-231 breast
MDA-MB-435 = tested on: MDA-MB-435
MOLT-4 leukemia = tested on: MOLT-4 leukemia
NCI-H226 lung = tested on: NCI-H226 lung
NCI-H23 lung = tested on: NCI-H23 lung
NCI-H460 lung = tested on: NCI-H460 lung
NCI-H522 lung = tested on: NCI-H522 lung
NCI/ADR-RES ovarian = tested on: NCI/ADR-RES ovarian
OVCAR-3 ovarian = tested on: OVCAR-3 ovarian
OVCAR-4 ovarian = tested on: OVCAR-4 ovarian
OVCAR-5 ovarian = tested on: OVCAR-5 ovarian
OVCAR-8 ovarian = tested on: OVCAR-8 ovarian
PC-3 prostate = tested on: PC-3 prostate
RPMI-8226 leukemia = tested on: RPMI-8226 leukemia
RXF 393 renal = tested on: RXF 393 renal
SF-268 CNS = tested on: SF-268 CNS
SF-295 CNS = tested on: SF-295 CNS
SF-539 CNS = tested on: SF-539 CNS
SK-MEL-2 melanoma = tested on: SK-MEL-2 melanoma
SK-MEL-28 melanoma = tested on: SK-MEL-28 melanoma
SK-MEL-5 melanoma = tested on: SK-MEL-5 melanoma
SK-OV-3 ovarian = tested on: SK-OV-3 ovarian
SN12C renal = tested on: SN12C renal
SNB-19 CNS = tested on: SNB-19 CNS
SNB-75 CNS = tested on: SNB-75 CNS
SR leukemia = tested on: SR leukemia
SW-620 colon = tested on: SW-620 colon
T-47D breast = tested on: T-47D breast
TK-10 renal = tested on: TK-10 renal
U251 CNS = tested on: U251 CNS
UACC-257 melanoma = tested on: UACC-257 melanoma
UACC-62 melanoma = tested on: UACC-62 melanoma
UO-31 renal = tested on: UO-31 renal

With `Cc1c(-c2ccc(C3CCCCC3)cc2)nc2ccc(F)cc2c1C(=O)O` as the molecule, how does the GI50 (786-0 renal) read?
Its GI50 is 0.235 µM.

And the TGI (786-0 renal)?
The TGI was over 100 µM.

And the GI50 (A498 renal)?
The GI50 was over 36.6 µM.

And the TGI (A498 renal)?
The TGI was over 100 µM.

And the GI50 (A549 NSCLC)?
Its GI50 is 0.128 µM.

And the TGI (A549 NSCLC)?
Its TGI is over 100 µM.

And the GI50 (ACHN renal)?
The GI50 was 0.33 µM.

And the TGI (ACHN renal)?
The TGI was over 100 µM.

And the GI50 (BT-549 breast)?
The GI50 was 9.89 µM.

What about the TGI (BT-549 breast) of the same molecule?
Its TGI is over 100 µM.

And the GI50 (CAKI-1 renal)?
The GI50 was 0.0815 µM.

What about the TGI (CAKI-1 renal) of the same molecule?
The TGI was over 100 µM.

What about the GI50 (CCRF-CEM leukemia) of the same molecule?
The GI50 was 0.0858 µM.

And the TGI (CCRF-CEM leukemia)?
The TGI was over 100 µM.

And the GI50 (COLO 205 colon)?
Its GI50 is 0.185 µM.

And the TGI (COLO 205 colon)?
Its TGI is over 100 µM.

What about the GI50 (DU-145 prostate) of the same molecule?
The GI50 was 0.802 µM.

What about the TGI (DU-145 prostate) of the same molecule?
The TGI was over 100 µM.

What about the GI50 (HCC-2998 colon) of the same molecule?
Its GI50 is 10.1 µM.

What about the TGI (HCC-2998 colon) of the same molecule?
Its TGI is over 100 µM.

And the GI50 (HCT-116 colon)?
The GI50 was 0.0508 µM.

And the TGI (HCT-116 colon)?
Its TGI is over 100 µM.

What about the GI50 (HCT-15 colon) of the same molecule?
Its GI50 is 0.0196 µM.

What about the TGI (HCT-15 colon) of the same molecule?
Its TGI is over 100 µM.

What about the GI50 (HL-60(TB) leukemia) of the same molecule?
Its GI50 is 0.335 µM.

And the TGI (HL-60(TB) leukemia)?
Its TGI is over 100 µM.

And the TGI (HOP-62 NSCLC)?
The TGI was over 100 µM.

What about the GI50 (HOP-92 NSCLC) of the same molecule?
Its GI50 is 15 µM.

What about the TGI (HOP-92 NSCLC) of the same molecule?
The TGI was 97.5 µM.

And the GI50 (HS 578T breast)?
Its GI50 is 34.8 µM.

What about the TGI (HS 578T breast) of the same molecule?
The TGI was over 100 µM.

What about the GI50 (HT29 colon) of the same molecule?
Its GI50 is 0.311 µM.

What about the TGI (HT29 colon) of the same molecule?
The TGI was over 100 µM.

And the GI50 (IGROV1 ovarian)?
Its GI50 is 1 µM.

And the TGI (IGROV1 ovarian)?
The TGI was over 100 µM.

What about the GI50 (K-562 leukemia) of the same molecule?
The GI50 was 0.0574 µM.

What about the TGI (K-562 leukemia) of the same molecule?
The TGI was over 100 µM.

What about the GI50 (KM12 colon) of the same molecule?
The GI50 was 0.402 µM.

And the TGI (KM12 colon)?
Its TGI is over 100 µM.

What about the GI50 (LOX IMVI melanoma) of the same molecule?
Its GI50 is 0.0512 µM.

And the TGI (LOX IMVI melanoma)?
Its TGI is over 100 µM.

What about the GI50 (M14 melanoma) of the same molecule?
The GI50 was 0.788 µM.

And the TGI (M14 melanoma)?
The TGI was over 100 µM.

What about the GI50 (MALME-3M melanoma) of the same molecule?
Its GI50 is over 51.4 µM.

What about the TGI (MALME-3M melanoma) of the same molecule?
Its TGI is over 100 µM.

What about the GI50 (MCF7 breast) of the same molecule?
The GI50 was 0.168 µM.

What about the TGI (MCF7 breast) of the same molecule?
Its TGI is over 100 µM.

And the GI50 (MDA-MB-231 breast)?
The GI50 was 8.9 µM.

What about the TGI (MDA-MB-231 breast) of the same molecule?
Its TGI is over 100 µM.

What about the GI50 (MDA-MB-435) of the same molecule?
Its GI50 is 0.322 µM.

And the TGI (MDA-MB-435)?
Its TGI is over 100 µM.

And the GI50 (MOLT-4 leukemia)?
Its GI50 is 0.0679 µM.

And the TGI (MOLT-4 leukemia)?
Its TGI is over 100 µM.

And the GI50 (NCI-H226 lung)?
Its GI50 is 3.08 µM.

What about the TGI (NCI-H226 lung) of the same molecule?
The TGI was over 100 µM.

What about the GI50 (NCI-H23 lung) of the same molecule?
Its GI50 is 6.54 µM.

What about the TGI (NCI-H23 lung) of the same molecule?
The TGI was over 100 µM.

And the GI50 (NCI-H460 lung)?
The GI50 was 0.0461 µM.

And the TGI (NCI-H460 lung)?
The TGI was over 100 µM.

And the GI50 (NCI-H522 lung)?
The GI50 was 0.766 µM.

And the TGI (NCI-H522 lung)?
The TGI was over 100 µM.

What about the GI50 (NCI/ADR-RES ovarian) of the same molecule?
Its GI50 is 0.609 µM.

What about the TGI (NCI/ADR-RES ovarian) of the same molecule?
The TGI was over 100 µM.

What about the GI50 (OVCAR-3 ovarian) of the same molecule?
Its GI50 is 0.475 µM.

And the TGI (OVCAR-3 ovarian)?
The TGI was over 100 µM.

And the GI50 (OVCAR-4 ovarian)?
The GI50 was 38 µM.

And the TGI (OVCAR-4 ovarian)?
Its TGI is over 100 µM.

And the GI50 (OVCAR-5 ovarian)?
The GI50 was over 100 µM.

And the TGI (OVCAR-5 ovarian)?
The TGI was over 100 µM.

And the GI50 (OVCAR-8 ovarian)?
Its GI50 is 0.123 µM.

What about the TGI (OVCAR-8 ovarian) of the same molecule?
Its TGI is over 100 µM.

And the GI50 (PC-3 prostate)?
Its GI50 is 0.0797 µM.

And the TGI (PC-3 prostate)?
The TGI was over 100 µM.

And the GI50 (RPMI-8226 leukemia)?
Its GI50 is 0.273 µM.

And the TGI (RPMI-8226 leukemia)?
Its TGI is over 100 µM.

What about the GI50 (RXF 393 renal) of the same molecule?
The GI50 was 10.7 µM.

What about the TGI (RXF 393 renal) of the same molecule?
The TGI was over 100 µM.

And the GI50 (SF-268 CNS)?
The GI50 was 0.405 µM.

What about the TGI (SF-268 CNS) of the same molecule?
The TGI was over 100 µM.

What about the GI50 (SF-295 CNS) of the same molecule?
Its GI50 is 0.0881 µM.

What about the TGI (SF-295 CNS) of the same molecule?
The TGI was over 100 µM.

What about the GI50 (SF-539 CNS) of the same molecule?
The GI50 was 0.0701 µM.

And the TGI (SF-539 CNS)?
The TGI was over 70 µM.

What about the GI50 (SK-MEL-2 melanoma) of the same molecule?
Its GI50 is over 45.9 µM.

What about the TGI (SK-MEL-2 melanoma) of the same molecule?
Its TGI is over 100 µM.

What about the GI50 (SK-MEL-28 melanoma) of the same molecule?
Its GI50 is 14.5 µM.

And the TGI (SK-MEL-28 melanoma)?
Its TGI is over 100 µM.

What about the GI50 (SK-MEL-5 melanoma) of the same molecule?
The GI50 was 0.0799 µM.

What about the TGI (SK-MEL-5 melanoma) of the same molecule?
Its TGI is over 100 µM.

What about the GI50 (SK-OV-3 ovarian) of the same molecule?
The GI50 was over 100 µM.

What about the TGI (SK-OV-3 ovarian) of the same molecule?
Its TGI is over 100 µM.

What about the GI50 (SN12C renal) of the same molecule?
Its GI50 is 0.546 µM.

What about the TGI (SN12C renal) of the same molecule?
The TGI was over 100 µM.

And the GI50 (SNB-19 CNS)?
Its GI50 is 0.2 µM.

And the TGI (SNB-19 CNS)?
The TGI was over 100 µM.

And the GI50 (SNB-75 CNS)?
The GI50 was 12.2 µM.

What about the TGI (SNB-75 CNS) of the same molecule?
Its TGI is over 100 µM.

What about the GI50 (SR leukemia) of the same molecule?
The GI50 was 0.0629 µM.

And the TGI (SR leukemia)?
The TGI was over 100 µM.

And the GI50 (SW-620 colon)?
Its GI50 is 0.228 µM.

And the TGI (SW-620 colon)?
The TGI was over 100 µM.

What about the GI50 (T-47D breast) of the same molecule?
The GI50 was 9.65 µM.

What about the TGI (T-47D breast) of the same molecule?
The TGI was over 100 µM.

And the GI50 (TK-10 renal)?
The GI50 was over 76.2 µM.

What about the TGI (TK-10 renal) of the same molecule?
The TGI was over 100 µM.

And the GI50 (U251 CNS)?
The GI50 was 0.0588 µM.

And the TGI (U251 CNS)?
Its TGI is over 100 µM.

What about the GI50 (UACC-257 melanoma) of the same molecule?
Its GI50 is 4.79 µM.

What about the TGI (UACC-257 melanoma) of the same molecule?
Its TGI is over 100 µM.

And the GI50 (UACC-62 melanoma)?
Its GI50 is 0.205 µM.

What about the TGI (UACC-62 melanoma) of the same molecule?
Its TGI is over 100 µM.

And the GI50 (UO-31 renal)?
Its GI50 is 0.721 µM.

What about the TGI (UO-31 renal) of the same molecule?
Its TGI is over 100 µM.
